We go through 2 compounds from paper PMC3382171 (PLoS ONE, 2012).

Holding throughout (experiment): biochemical
One test deals with T1, AuroraB (Homo sapiens, UniProt Q96GD4).
T1 construct: gene AURKB
To be noted: read-out: Dundee KSS % inhibition at 1uM. Here is the method:
(§1) The METi and RAFi were screened against kinase panels (SelectScreen, Invitrogen; University of Dundee, Division of Signal Transduction Therapy, UK; Upstate Biotechnology/Millipore, Billerica, MA). In these selectivity assays the concentration of ATP was set to the Km value of ATP for each kinase tested to allow for a relative potency comparison between the various kinases. The compounds were tested at 1 µM final concentration. […] (A) Kinase selectivity screen (KSS) performed at Upstate Biotechnology. […] (B) KSS performed at University of Dundee (Division of Signal Transduction Therapy). […] (PDF) Click here for additional data file.

The target in the next test is T2, EF2K (Homo sapiens, UniProt O00418).
T2 construct: gene EEF2K
The note with it: read-out: Dundee KSS % inhibition at 1uM. The protocol: as §1

The target of another test is IGF1R (Homo sapiens, UniProt P08069). The note with it: read-out: Upstate KSS % inhibition at 1uM. The protocol:
as §1

A further test concerns the target T3, JNK2 (Homo sapiens, UniProt P45984).
T3 construct: gene MAPK9
The note with it: read-out: Dundee KSS % inhibition at 1uM. The protocol: as §1

The target in another test is T4, MAPKAP-K1a (Homo sapiens, UniProt Q15418).
T4 construct: gene RPS6KA1
The note with it: read-out: Dundee KSS % inhibition at 1uM. The protocol: as §1

The target in the next test is T5, MNK2 (Homo sapiens, UniProt Q9HBH9).
T5 construct: gene MKNK2
To be noted: read-out: Dundee KSS % inhibition at 1uM. Here is the method:
as §1

For another test, the target named is T6, MST2 (Homo sapiens, UniProt Q13188).
T6 construct: gene STK3
To be noted: read-out: Dundee KSS % inhibition at 1uM. Here is the method: as §1

The target of a further test is PIM1 (Homo sapiens, UniProt P11309). To be noted: read-out: Dundee KSS % inhibition at 1uM. The protocol:
as §1

The target of another test is T7, PKD1 (Homo sapiens, UniProt Q15139).
T7 construct: gene PRKD1
To be noted: read-out: Dundee KSS % inhibition at 1uM. Here is the method:
as §1

The next test concerns the target T8, PRAK (Homo sapiens, UniProt Q8IW41).
T8 construct: gene MAPKAPK5
To be noted: read-out: Dundee KSS % inhibition at 1uM. The protocol:
as §1

A further test addresses T9, SAPK3/p38g (Homo sapiens, UniProt P53778).
T9 construct: gene MAPK12
To be noted: read-out: Dundee KSS % inhibition at 1uM. Here is the method:
as §1

In a further test the target is T10, SGK (Homo sapiens, UniProt O00141).
T10 construct: gene SGK1
To be noted: read-out: Dundee KSS % inhibition at 1uM. Here is the method:
as §1

The target in a further test is T11, deltaPH-PKBbeta (Homo sapiens, UniProt P31751).
T11 construct: gene AKT2; delta PH
To be noted: read-out: Dundee KSS % inhibition at 1uM. Here is the method: as §1

A further test addresses mouse LCK (Mus musculus, UniProt P06240). To be noted: read-out: Dundee KSS % inhibition at 1uM. The protocol: as §1
The next test addresses ZAP70 (Homo sapiens, UniProt P43403). More on the design: gene ZAP70. To be noted: read-out: Upstate KSS % inhibition at 1uM. The protocol: In these selectivity assays the concentration of ATP was set to the Km value of ATP for each kinase tested to allow for a relative potency comparison between the various kinases. The compounds were tested at 1 µM final concentration. […] (A) Kinase selectivity screen (KSS) performed at Upstate Biotechnology. […] (B) KSS performed at University of Dundee (Division of Signal Transduction Therapy). […] (PDF) Click here for additional data file.

Another test deals with FLT3 (Homo sapiens, UniProt P36888). Details: Invitrogen SelectScreen kinase panel, percent inhibition at 1 uM, ATP at Km. To be noted: read-out: Invitrogen KSS %Inh at 1 µM. Summed up:
(§2)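 Commercial kinase panel screens run with ATP at the Km for each kinase. Compounds tested at 1 µM final concentration; values are % inhibition of phosphorylation relative to control.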

For the next test, the target named is MAPK9 (JNK2) (Homo sapiens, UniProt P45984). Details: Invitrogen SelectScreen kinase panel, percent inhibition at 1 uM, ATP at Km. The note with it: read-out: Invitrogen KSS %Inh at 1 µM. Summed up: as §2
Another test addresses MST1R (RON) (Homo sapiens, UniProt Q04912). Details: Invitrogen SelectScreen kinase panel, percent inhibition at 1 uM, ATP at Km. To be noted: read-out: Invitrogen KSS %Inh at 1 µM. The gist of the method:
as §2

Sequence of FLT3 (P36888 whole entry): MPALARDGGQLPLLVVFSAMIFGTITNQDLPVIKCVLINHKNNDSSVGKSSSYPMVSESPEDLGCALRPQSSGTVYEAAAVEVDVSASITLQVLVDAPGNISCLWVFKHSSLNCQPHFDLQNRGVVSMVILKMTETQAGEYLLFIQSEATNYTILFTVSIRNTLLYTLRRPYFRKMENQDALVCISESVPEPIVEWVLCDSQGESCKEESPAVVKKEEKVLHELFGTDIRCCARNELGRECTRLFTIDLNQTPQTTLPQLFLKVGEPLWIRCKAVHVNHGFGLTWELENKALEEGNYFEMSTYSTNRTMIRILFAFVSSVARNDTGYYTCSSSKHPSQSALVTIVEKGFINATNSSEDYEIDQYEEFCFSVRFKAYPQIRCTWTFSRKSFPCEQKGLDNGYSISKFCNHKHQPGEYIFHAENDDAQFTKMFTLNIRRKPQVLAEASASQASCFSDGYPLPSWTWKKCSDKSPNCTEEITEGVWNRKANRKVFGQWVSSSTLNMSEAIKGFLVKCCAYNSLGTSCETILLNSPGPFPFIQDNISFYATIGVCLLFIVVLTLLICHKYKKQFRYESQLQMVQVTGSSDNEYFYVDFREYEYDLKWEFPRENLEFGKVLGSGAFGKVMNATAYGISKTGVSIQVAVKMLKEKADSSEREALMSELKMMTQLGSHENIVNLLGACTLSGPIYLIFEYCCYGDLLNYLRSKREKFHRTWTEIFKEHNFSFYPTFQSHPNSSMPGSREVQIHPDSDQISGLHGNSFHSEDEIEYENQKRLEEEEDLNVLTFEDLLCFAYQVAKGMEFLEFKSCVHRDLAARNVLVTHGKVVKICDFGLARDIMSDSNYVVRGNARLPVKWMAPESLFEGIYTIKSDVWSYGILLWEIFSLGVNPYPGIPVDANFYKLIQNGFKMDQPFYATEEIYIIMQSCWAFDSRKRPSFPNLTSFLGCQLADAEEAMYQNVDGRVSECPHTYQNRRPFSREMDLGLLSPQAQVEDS
Sequence of PIM1 (P11309 whole entry): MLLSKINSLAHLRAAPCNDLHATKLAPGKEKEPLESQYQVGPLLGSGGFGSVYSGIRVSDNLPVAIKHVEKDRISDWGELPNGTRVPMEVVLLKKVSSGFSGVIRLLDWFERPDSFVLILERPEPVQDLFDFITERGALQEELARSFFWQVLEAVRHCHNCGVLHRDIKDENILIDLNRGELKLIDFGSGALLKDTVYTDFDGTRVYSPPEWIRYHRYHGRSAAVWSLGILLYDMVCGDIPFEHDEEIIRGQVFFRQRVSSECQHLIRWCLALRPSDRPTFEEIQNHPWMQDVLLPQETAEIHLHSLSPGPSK
T2 sequence (O00418 whole entry): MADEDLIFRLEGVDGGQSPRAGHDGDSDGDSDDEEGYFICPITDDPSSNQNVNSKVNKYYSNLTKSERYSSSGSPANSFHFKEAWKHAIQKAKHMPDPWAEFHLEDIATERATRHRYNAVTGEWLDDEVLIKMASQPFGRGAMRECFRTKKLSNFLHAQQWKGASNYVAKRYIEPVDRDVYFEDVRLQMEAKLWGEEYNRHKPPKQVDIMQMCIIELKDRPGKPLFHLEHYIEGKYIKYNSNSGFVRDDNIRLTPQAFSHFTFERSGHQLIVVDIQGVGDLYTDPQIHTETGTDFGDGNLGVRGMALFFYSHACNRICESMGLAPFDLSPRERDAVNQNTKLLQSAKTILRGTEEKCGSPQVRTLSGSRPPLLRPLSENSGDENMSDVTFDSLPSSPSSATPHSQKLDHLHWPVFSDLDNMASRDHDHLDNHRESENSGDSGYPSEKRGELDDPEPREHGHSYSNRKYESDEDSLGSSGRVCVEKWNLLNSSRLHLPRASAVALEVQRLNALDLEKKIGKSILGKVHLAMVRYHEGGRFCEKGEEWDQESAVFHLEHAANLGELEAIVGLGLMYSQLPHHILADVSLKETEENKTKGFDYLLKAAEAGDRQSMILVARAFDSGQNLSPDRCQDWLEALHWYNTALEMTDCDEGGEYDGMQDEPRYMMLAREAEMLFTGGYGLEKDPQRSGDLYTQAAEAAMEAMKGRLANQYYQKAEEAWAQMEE
T10 sequence (O00141 whole entry): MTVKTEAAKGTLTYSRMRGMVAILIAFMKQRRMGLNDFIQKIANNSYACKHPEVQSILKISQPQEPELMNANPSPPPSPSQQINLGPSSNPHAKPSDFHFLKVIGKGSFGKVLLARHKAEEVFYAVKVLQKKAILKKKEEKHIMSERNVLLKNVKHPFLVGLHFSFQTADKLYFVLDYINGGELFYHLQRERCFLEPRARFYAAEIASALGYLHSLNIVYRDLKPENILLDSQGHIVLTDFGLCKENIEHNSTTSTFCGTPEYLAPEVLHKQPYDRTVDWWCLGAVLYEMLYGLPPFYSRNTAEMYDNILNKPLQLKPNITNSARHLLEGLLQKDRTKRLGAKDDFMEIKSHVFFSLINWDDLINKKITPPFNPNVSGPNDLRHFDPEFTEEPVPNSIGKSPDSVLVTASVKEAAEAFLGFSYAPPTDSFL
Sequence of IGF1R (P08069 31-736): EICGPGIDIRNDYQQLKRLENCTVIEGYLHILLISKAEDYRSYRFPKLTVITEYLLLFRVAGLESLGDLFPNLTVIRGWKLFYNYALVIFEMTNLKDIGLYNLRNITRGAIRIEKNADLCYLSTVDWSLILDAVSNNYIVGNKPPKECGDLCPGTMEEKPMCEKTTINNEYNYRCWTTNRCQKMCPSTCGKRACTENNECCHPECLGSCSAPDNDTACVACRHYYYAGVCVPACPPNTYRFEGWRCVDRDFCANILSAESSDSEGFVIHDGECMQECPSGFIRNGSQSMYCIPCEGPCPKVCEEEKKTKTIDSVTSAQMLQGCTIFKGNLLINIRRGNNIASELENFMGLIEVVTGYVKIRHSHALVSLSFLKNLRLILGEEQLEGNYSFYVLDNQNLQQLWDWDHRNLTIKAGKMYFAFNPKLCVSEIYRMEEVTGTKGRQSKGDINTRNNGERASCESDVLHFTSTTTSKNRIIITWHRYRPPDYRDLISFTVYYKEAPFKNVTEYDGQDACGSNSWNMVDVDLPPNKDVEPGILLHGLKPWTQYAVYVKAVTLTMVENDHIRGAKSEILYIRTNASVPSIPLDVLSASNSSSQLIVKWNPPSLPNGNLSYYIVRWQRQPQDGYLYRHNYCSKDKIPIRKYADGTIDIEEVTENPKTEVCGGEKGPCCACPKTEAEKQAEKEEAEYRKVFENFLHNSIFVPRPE
Sequence of IGF1R (P08069 741-1367): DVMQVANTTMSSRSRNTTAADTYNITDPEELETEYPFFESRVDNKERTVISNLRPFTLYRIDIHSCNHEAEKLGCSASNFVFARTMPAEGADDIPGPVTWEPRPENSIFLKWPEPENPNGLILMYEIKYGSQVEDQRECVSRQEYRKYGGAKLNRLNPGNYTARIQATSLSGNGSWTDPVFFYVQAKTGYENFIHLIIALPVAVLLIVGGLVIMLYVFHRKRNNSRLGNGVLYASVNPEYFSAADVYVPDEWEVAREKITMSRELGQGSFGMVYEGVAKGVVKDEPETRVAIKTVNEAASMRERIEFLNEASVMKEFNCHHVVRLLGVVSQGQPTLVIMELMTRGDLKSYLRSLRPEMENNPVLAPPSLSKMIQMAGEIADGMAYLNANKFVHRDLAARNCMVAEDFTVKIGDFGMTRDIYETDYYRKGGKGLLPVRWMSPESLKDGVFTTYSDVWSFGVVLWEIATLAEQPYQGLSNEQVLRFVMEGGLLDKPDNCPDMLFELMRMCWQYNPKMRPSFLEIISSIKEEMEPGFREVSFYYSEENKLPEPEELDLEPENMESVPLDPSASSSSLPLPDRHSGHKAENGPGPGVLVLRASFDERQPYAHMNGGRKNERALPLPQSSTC
T1 sequence (Q96GD4 whole entry): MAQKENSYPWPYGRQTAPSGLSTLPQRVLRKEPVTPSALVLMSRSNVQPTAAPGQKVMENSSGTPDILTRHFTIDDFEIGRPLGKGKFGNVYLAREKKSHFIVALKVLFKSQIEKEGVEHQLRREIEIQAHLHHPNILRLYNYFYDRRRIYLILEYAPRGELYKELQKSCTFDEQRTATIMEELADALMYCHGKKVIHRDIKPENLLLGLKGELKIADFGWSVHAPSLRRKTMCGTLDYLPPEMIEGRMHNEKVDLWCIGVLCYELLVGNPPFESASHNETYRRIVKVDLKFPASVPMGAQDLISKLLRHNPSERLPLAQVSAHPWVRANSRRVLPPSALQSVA
T4 sequence (Q15418 whole entry): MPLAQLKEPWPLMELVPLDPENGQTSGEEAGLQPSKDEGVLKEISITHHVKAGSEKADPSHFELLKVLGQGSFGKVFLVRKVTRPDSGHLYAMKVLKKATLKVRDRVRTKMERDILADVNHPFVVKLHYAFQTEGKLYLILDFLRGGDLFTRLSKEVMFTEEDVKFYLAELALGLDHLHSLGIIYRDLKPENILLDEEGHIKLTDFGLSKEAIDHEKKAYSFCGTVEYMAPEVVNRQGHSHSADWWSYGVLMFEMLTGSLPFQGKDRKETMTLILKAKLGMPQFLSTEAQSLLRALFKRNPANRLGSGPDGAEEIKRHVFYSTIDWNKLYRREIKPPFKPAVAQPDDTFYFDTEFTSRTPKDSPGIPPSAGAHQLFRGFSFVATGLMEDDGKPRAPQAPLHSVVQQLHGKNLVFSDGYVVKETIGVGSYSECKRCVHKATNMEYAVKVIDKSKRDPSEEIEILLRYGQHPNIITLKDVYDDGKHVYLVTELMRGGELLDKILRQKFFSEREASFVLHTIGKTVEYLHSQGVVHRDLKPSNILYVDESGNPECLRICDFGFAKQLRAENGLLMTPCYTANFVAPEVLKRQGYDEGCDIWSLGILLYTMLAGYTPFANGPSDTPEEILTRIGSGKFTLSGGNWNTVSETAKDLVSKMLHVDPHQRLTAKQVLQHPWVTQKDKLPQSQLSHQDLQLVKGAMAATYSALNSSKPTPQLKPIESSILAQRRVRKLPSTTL

Regarding `OCCn1cc(-c2cnc3nnn(Cc4ccc5ncccc5c4)c3n2)cn1` [METi, PF-04217903], the inhibition at 1 µM on AuroraB is 11.2%; at EF2K, -13.1%; on IGF1R it was 103%; at JNK2, 14.9%; on MAPKAP-K1a, 3.34%; at MNK2, 13.4%. The inhibition at 1 µM was found to be 6.16% on MST2; 4.46% on PIM1; 6.21% at PKD1; 4.01% at PRAK; 3.7% at SAPK3/p38g; 29.4% at SGK. For the same compound, the inhibition at 1 µM amounted to 8.16% on deltaPH-PKBbeta, 15.7% at mouse LCK and 3% on ZAP70.

Consider `N#CCCNc1nccc(-c2cn(CC(F)F)nc2-c2cnc3[nH]ccc3c2)n1` [RAFi, PF-04880594], for which the inhibition at 1 µM on FLT3 came out at 61%; on MAPK9 (JNK2), 101%; at MST1R (RON), 2%.
